From patent US9278903B2, “Crystal form of prostaglandin analogue, and preparation method and use thereof” (Shanghai Techwell Biopharmaceutical Co., Ltd., priority 2012, dated 2016)

Key:
[1] = cited from earlier work
[2] = Stability comparison at 40° C. (HPLC purity); type: physicochemical
Protocol: (§1) Column: 4.6×250 mm 5 μm C18 column; flow rate: 2 ml/min; injection volume: 10 μl; column temperature: 35° C.; detection wavelength: 217 nm; mobile phase: acetonitrile/water/trifluoroacetic acid; Elution condition: water (60%): acetonitrile (40%): trifluoroacetic acid (0.1%); detection limit: 10 ng.
The purity mentioned in the following Examples is HPLC purity.
Compound I from example 2, example 3 and example 4 were obtained, and subjected to stability test at 40° C., respectively. […] Therefore, crystalline form A of compound I prepared by the method of the present invention has unique stability.

[3] = Storage stability of crystalline form A (HPLC); type: physicochemical
Protocol: as §1
[…] […] Therefore, crystalline form A of compound I prepared by the method of the present invention has unique stability.

[4] = cited from earlier work; remark: listed apart in the source

For CCCCC[C@H](O)/C=C/[C@@H]1[C@H]2C/C(=C/CCCC(=O)O)O[C@H]2C[C@H]1O [Epoprostenol], which Half-life in circulation [1] is on record?
Its Half-life in circulation is 3 to 5 min.

Which results are given for CCCCC[C@H](O)CC[C@@H]1[C@H]2Cc3cccc(OCC(=O)O)c3C[C@H]2C[C@H]1O [Example 4]?
Purity at 0 day (40° C.) ([2]; 0 day): 99.90%; Purity at 10 day (40° C.) ([2]; 10 day): 99.91%; Purity at 30 day (40° C.) ([2]; 30 day): 99.89%; Purity at 90 day (40° C.) ([2]; 90 day): 99.88%; Degradation on storage (HPLC) ([3]; stored at 0° C. for 12 months): did not degrade at all; Degradation on storage (HPLC) ([3]; stored at 20° C. for 6 months): did not degrade at all; Degradation on storage (HPLC) ([3]; stored at 40° C. for 2 months): did not degrade at all

With CCCCC[C@H](O)CC[C@@H]1[C@H]2Cc3cccc(OCC(=O)O)c3C[C@H]2C[C@H]1O [Treprostinil] as the compound, how does the “Stability under physiological conditions” value [4] read?
Its value is “stable under physiological conditions”.
